Measured values taken from patent US6737383B1, “Herbicidal oxadiazolidines” (priority 1999, dated 2004).

Columns and labels:
[1] = tested on: morningglory; experiment: Test B pre/postemergence morningglory; type: in vivo, Ipomoea hederacea
Summary of the method: (§1)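 Response is a visual 0-to-10 score relative to untreated plants, where 0 means no effect and 10 means complete control, taken twelve to sixteen days after application. Treatments went onto soil at planting and onto foliage of 1- to 4-leaf plants, using a surfactant-containing non-phytotoxic solvent.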

[2] = tested on: velvetleaf; experiment: Test B pre/postemergence velvetleaf; type: in vivo, Abutilon theophrasti
Summary of the method: as §1

[3] = tested on: wild oat; experiment: Test B pre/postemergence wild oat; type: in vivo, Avena fatua
Summary of the method: as §1

[4] = tested on: surinam grass; experiment: Test B pre/postemergence surinam grass; type: in vivo, Brachiaria decumbens
Summary of the method: as §1

[5] = tested on: soybean; experiment: Test B pre/postemergence soybean; type: in vivo, Glycine max
Summary of the method: as §1

[6] = tested on: wheat; experiment: Test B pre/postemergence wheat; type: in vivo, Triticum aestivum
Summary of the method: as §1

[7] = tested on: cocklebur; experiment: Test B pre/postemergence cocklebur; type: in vivo, Xanthium strumarium
Summary of the method: as §1

[8] = tested on: pigweed; experiment: Test B pre/postemergence pigweed; type: in vivo, Amaranthus retroflexus
Summary of the method: as §1

[9] = tested on: giant foxtail; experiment: Test B pre/postemergence giant foxtail; type: in vivo, Setaria faberii
Summary of the method: as §1

[10] = tested on: blackgrass; experiment: Test B pre/postemergence blackgrass; type: in vivo, Alopecurus myosuroides
Summary of the method: as §1

[11] = tested on: corn; experiment: Test B pre/postemergence corn; type: in vivo, Zea mays
Summary of the method: as §1

[12] = tested on: crabgrass; experiment: Test B pre/postemergence crabgrass; type: in vivo, Digitaria sanguinalis
Summary of the method: as §1

[13] = tested on: bedstraw; experiment: Test B pre/postemergence bedstraw; type: in vivo, Galium aparine; details: Rate 62 g/ha, Postemergence; scale of 0 to 10 where 0 is no effect and 10 is complete control
Summary of the method: as §1

[14] = tested on: sugar beet; experiment: Test B pre/postemergence sugar beet; type: in vivo, Beta vulgaris
Summary of the method: as §1

[15] = tested on: purple nutsedge; experiment: Test B pre/postemergence purple nutsedge; type: in vivo, Cyperus rotundus
Summary of the method: as §1

[16] = tested on: rape; experiment: Test B pre/postemergence rape; type: in vivo, Brassica napus
Summary of the method: as §1

[17] = Preemergence, Rate 62 g/ha, scale of 0 to 10 where 0 is no effect and 10 is complete control
[18] = Preemergence, Rate 250 g/ha, scale of 0 to 10 where 0 is no effect and 10 is complete control
[19] = Preemergence, Rate 500 g/ha, scale of 0 to 10 where 0 is no effect and 10 is complete control
[20] = Rate 125 g/ha, Preemergence, scale of 0 to 10 where 0 is no effect and 10 is complete control
[21] = Rate 500 g/ha, Postemergence, scale 0 to 10, 0 no effect, 10 complete control
[22] = Rate 62 g/ha, Postemergence, scale of 0 to 10 where 0 is no effect and 10 is complete control
[23] = Rate 125 g/ha, Postemergence, scale 0 to 10

Structure (SMILES): CC(C)N(C(=O)n1oc(=O)n(COCc2ccccc2)c1=O)c1ccc(F)cc1 [Compound 261]
- Morningglory plant response rating [1, 17]: 0
- Morningglory plant response rating [1, 18]: 0
- Plant response rating, Morningglory [1, 19]: 0
- Morningglory plant response rating [1, 20]: 0
- Plant response rating (0 to 10; 0 is no effect, 10 is complete control), Morningglory ([1]; Rate 250 g/ha, Postemergence): 6
- Morningglory plant response rating [1, 21]: 6
- Velvetleaf plant response rating [2, 17]: 0
- Velvetleaf plant response rating [2, 18]: 0
- Plant response rating, Velvetleaf [2, 19]: 0
- Velvetleaf plant response rating [2, 20]: 0
- Velvetleaf plant response rating [2, 21]: 1
- Wild oats plant response rating [3, 17]: 0
- Wild oats plant response rating [3, 18]: 0
- Plant response rating, Wild oats [3, 19]: 0
- Wild oats plant response rating [3, 20]: 0
- Wild oats plant response rating [3, 21]: 0
- B. signalgrass plant response rating [4, 17]: 0
- B. signalgrass plant response rating [4, 18]: 0
- Plant response rating, B. signalgrass [4, 19]: 3
- B. signalgrass plant response rating [4, 22]: 0
- B. signalgrass plant response rating ([4]; Rate 125 g/ha, Postemergence, scale 0 (no effect) to 10 (complete control)): 0
- B. signalgrass plant response rating [4, 20]: 0
- Plant response rating (0 to 10; 0 is no effect, 10 is complete control), B. signalgrass ([4]; Rate 250 g/ha, Postemergence): 0
- B. signalgrass plant response rating [4, 21]: 0
- Soybean plant response rating [5, 17]: 0
- Soybean plant response rating [5, 18]: 0
- Plant response rating, Soybean [5, 19]: 0
- Soybean plant response rating [5, 20]: 0
- Soybean plant response rating [5, 21]: 4
- Wheat plant response rating [6, 17]: 0
- Wheat plant response rating [6, 18]: 0
- Plant response rating, Wheat [6, 19]: 0
- Wheat plant response rating [6, 20]: 0
- Wheat plant response rating [6, 21]: 2
- Cocklebur plant response rating [7, 17]: 0
- Cocklebur plant response rating [7, 18]: 0
- Plant response rating, Cocklebur [7, 19]: 0
- Cocklebur plant response rating [7, 22]: 0
- Cocklebur plant response rating [7, 23]: 0
- Cocklebur plant response rating [7, 20]: 0
- Plant response rating (0 to 10; 0 is no effect, 10 is complete control), Cocklebur ([7]; Rate 250 g/ha, Postemergence): 0
- Cocklebur plant response rating [7, 21]: 1
- Redroot pigweed plant response rating [8, 17]: 0
- Redroot pigweed plant response rating [8, 18]: 0
- Plant response rating, Redroot pigweed [8, 19]: 0
- Redroot pigweed plant response rating [8, 20]: 0
- Plant response rating (0 to 10; 0 is no effect, 10 is complete control), Redroot pigweed ([8]; Rate 250 g/ha, Postemergence): 1
- Redroot pigweed plant response rating [8, 21]: 2
- Giant foxtail plant response rating [9, 17]: 8
- Giant foxtail plant response rating [9, 18]: 9
- Plant response rating, Giant foxtail [9, 19]: 9
- Giant foxtail plant response rating [9, 20]: 8
- Plant response rating (0 to 10; 0 is no effect, 10 is complete control), Giant foxtail ([9]; Rate 250 g/ha, Postemergence): 0
- Giant foxtail plant response rating [9, 21]: 0
- Blackgrass plant response rating [10, 17]: 0
- Blackgrass plant response rating [10, 18]: 1
- Plant response rating, Blackgrass [10, 19]: 4
- Blackgrass plant response rating [10, 22]: 0
- Blackgrass plant response rating [10, 23]: 0
- Blackgrass plant response rating [10, 20]: 0
- Plant response rating (0 to 10; 0 is no effect, 10 is complete control), Blackgrass ([10]; Rate 250 g/ha, Postemergence): 0
- Blackgrass plant response rating [10, 21]: 5
- Corn plant response rating [11, 17]: 0
- Corn plant response rating [11, 18]: 0
- Plant response rating, Corn [11, 19]: 0
- Corn plant response rating [11, 22]: 0
- Corn plant response rating [11, 23]: 0
- Corn plant response rating [11, 20]: 0
- Plant response rating (0 to 10; 0 is no effect, 10 is complete control), Corn ([11]; Rate 250 g/ha, Postemergence): 0
- Corn plant response rating [11, 21]: 0
- Crabgrass plant response rating [12, 17]: 2
- Crabgrass plant response rating [12, 18]: 5
- Plant response rating, Crabgrass [12, 19]: 5
- Crabgrass plant response rating [12, 20]: 3
- Plant response rating (0 to 10; 0 is no effect, 10 is complete control), Crabgrass ([12]; Rate 250 g/ha, Postemergence): 0
- Crabgrass plant response rating [12, 21]: 0
- Bedstraw plant response rating [13]: 0
- Sugarbeets plant response rating [14, 17]: 0
- Sugarbeets plant response rating [14, 18]: 0
- Plant response rating, Sugarbeets [14, 19]: 0
- Sugarbeets plant response rating [14, 20]: 0
- Sugarbeets plant response rating [14, 21]: 0
- Nutsedge plant response rating [15, 18]: 0
- Plant response rating, Nutsedge [15, 19]: 0
- Nutsedge plant response rating [15, 20]: 0
- Plant response rating (0 to 10; 0 is no effect, 10 is complete control), Nutsedge ([15]; Rate 250 g/ha, Postemergence): 0
- Nutsedge plant response rating [15, 21]: 0
- Rape plant response rating [16, 17]: 0
- Rape plant response rating [16, 18]: 0
- Plant response rating, Rape [16, 19]: 0
- Rape plant response rating [16, 20]: 0
- Plant response rating (0 to 10; 0 is no effect, 10 is complete control), Rape ([16]; Rate 250 g/ha, Postemergence): 0
- Rape plant response rating [16, 21]: 0
